The values below come from EP0488169A1, “Beta-Hydroxyethylamines with a 1,1-disubstituted cyclopropyl-group, process for their preparation and use” (HOECHST AKTIENGESELLSCHAFT, priority 1990, dated 1992).

For experiment [1], the system named is Trichophyton Mentagrophytes. Nature of the experiment: Fungicidal (killing) effect on resting stages (microconidia) of Trichophyton Mentagrophytes, overnight incubation in aqua dest., survival after wash-out. It counts as cell-based. As to conditions: read-out: Fungizidie (pilzabtötende Wirkung). The source says: Die Fungizide (pilzabtötende Wirkung) der Verbindungendes Typs der Formel I wird bestimmt, indem Ruhestadien (Vermehrungsform ist gleich Mikrokonidien) des Pilzes Trichophyton Mentagrophytes in aqua dest. über Nacht inkubiert werden. Nach Auswaschen des Präparats (vgl. H. Hänel und W. Raether in mycoses 31 (3), 148-154 (1988)) wird auf Überleben der Pilze geprüft.
Einige auf diese Weise bestimmte Werte sind in Tabelle 4 wiedergegeben (Vergleichspräparat ist Rilopirox).

Experiment [2] has as its system Phospholipase aus Leberzellen. The following applies: phospholipase from liver cells; Biochem. Pharmacol. 34, 521-24, 1985; cited from earlier work.
The subject of another experiment is Candida albicans. Nature of the experiment: Systemic Candida albicans infection in the mouse, survival time, combination therapy with Fluconazol. The class given is in vivo, Maus. The following applies: for Überlebenszeit (bez. auf Fluconazol = 100 %): mice infected i.v. with C. albicans, Fluconazol 9 x p.o. 50 mg/kg/day, combination partner 14 x p.o. 50 mg/kg/day. The source says: Als Beispiele für die systemische in vivo-Wirksamkeit der Verbindungen dient die systemische Candida albicans Infektion bei der Maus.
Ziel dieser Methode ist es, den Effekt von Präparaten auf eine systemische Candida albicans Infektion zu ermitteln. Die Infektion führt innerhalb von 2-4 Tagen zum Tod der Tiere.
Beschreibung der Methode: Albino Mäuse (NMRI, Männchen, 15-20 g Körpergewicht) werden intravenös mit Candida albicans Hefezellen infiziert (Stamm 200/175), die frisch auf Malzagar vorkultiviert wurden und in physiologischer Kochsalzlösung suspendiert wurden. Die Infektionsdosis, die in dem angegebenen Zeitrahmen zur Lethalität führt, wurde photometrisch eingestellt und enthielt eine Million Hefezellen pro Maus.
Die zu prüfenden Verbindungen werden entweder alleine oder in Kombination mit einem Standardantimykotikum verabreicht. Im durchgeführten Test wurde ein Kombinationspräparat verwendet, wobei als Standardantimykotikum Fluconazol (Fa. Pfizer) diente. Applikationswege sind je nach Substanzgruppe unterschiedlich, wobei der oralen Applikation der Vorzug gegeben wird. Die Mäuse werden 4 Wochen beobachtet, die Mortalität wird täglich registriert, und die Überlebenszeiten der einzelnen Gruppen werden gemittelt und untereinander verglichen. Gruppengröße beträgt durchschnittlich 10 Tiere.
Der Vergleich der Mittelwerte geschieht mit dem Students T Test.
Dosierungen: Fluconazol jeweils 9 x p.o. 50 mg/kg/Tag Kombinationspartner jeweils 14 x p.o. 50 mg/kg /Tag

In the case of `CC(C)(C)NCC(O)(c1ccc(Cl)cc1)C1(SCc2ccc(Cl)cc2F)CC1` (stereo not shown) [Verbindung 1.44], in experiment [1], the killing at 10 µg/mL amounted to 99.1%, the killing at 20 µg/mL was found to be 100%, the killing at 40 µg/mL is 100% and the killing at 80 µg/mL was determined as 100%.
As for `Cc1cc(COc2ccc(Oc3ccc(Cl)cc3)cc2)n(O)c(=O)c1` [Rilopirox, reference compound], in experiment [1], the killing at 5 µg/mL is 96.2%, the killing at 10 µg/mL came out at 100%, the killing at 20 µg/mL was 100% and the killing at 40 µg/mL was found to be 100%. Besides, in experiment [1], the killing at 80 µg/mL amounted to 100%.
As for `CCCCNCC(O)(c1ccc(Cl)cc1)C1(SCc2ccc(C(C)(C)C)cc2)CC1` (stereo not shown) [Verbindung 1.29], in experiment [1], the killing at 10 µg/mL was found to be 99.7%, the killing at 20 µg/mL was 100%, the killing at 40 µg/mL was 100% and the killing at 80 µg/mL amounted to 100%.
As to `CCCCNCC(O)(c1ccc(C)cc1)C1(SCc2cccc(C(F)(F)F)c2)CC1` (stereo not shown) [Verbindung 1.48], in experiment [1], the killing at 10 µg/mL was determined as 99.4%, the killing at 20 µg/mL was 100%, the killing at 40 µg/mL was determined as 100% and the killing at 80 µg/mL was 100%.
With `CC(C)NCC(O)COc1cccc2ccccc12` (stereo not shown) [Propranolol], the Hemmwirkung result in experiment [2] is recorded as “wirksamste Substanz”.
`OC(Cn1cncn1)(Cn1cncn1)c1ccc(F)cc1F` [Fluconazol, reference compound]: the “Überlebenszeit (bez. auf Fluconazol = 100 %)” value in the experiment on Candida albicans is recorded as 100%.
With `CC(C)(C)NCC(O)(c1ccc(Cl)cc1)C1(SCc2ccc(C(C)(C)C)cc2)CC1` (stereo not shown) [Verbindung 1.36], in experiment [1], the killing at 10 µg/mL was 96.5%, the killing at 20 µg/mL came to 100%, the killing at 40 µg/mL is 100% and the killing at 80 µg/mL stood at 100%.
In the case of `CC(C)OCCCNCC(O)(c1ccc(Cl)cc1)C1(SCc2ccc(C(C)(C)C)cc2)CC1` (stereo not shown) [Verbindung 1.35], in experiment [1], the killing at 5 µg/mL was determined as 99.3%, the killing at 10 µg/mL was found to be 100%, the killing at 20 µg/mL stood at 100% and the killing at 40 µg/mL worked out at 100%. The killing at 80 µg/mL in experiment [1] was determined as 100%.
For the molecule `CCCCNCC(O)(c1ccc(Cl)cc1)C1(SCc2ccc(Cl)cc2)CC1` (stereo not shown) [Verbindung 1.4], the “Verlängerung der Überlebenszeit” value in the experiment with Candida albicans (combination therapy with Fluconazol versus Fluconazol monotherapy, compound 14 x 50 mg/kg p.o. once daily) is reported as 57%. Further, the “Überlebenszeit (bez. auf Fluconazol = 100 %)” value in the experiment with Candida albicans is recorded as 157%.
Consider `CC(C)NCC(O)(c1ccc(Cl)cc1)C1(SCc2cccc(C(F)(F)F)c2)CC1` (stereo not shown) [Verbindung 1.17], for which, in experiment [1], the killing at 10 µg/mL turned out to be 96.9%, the killing at 20 µg/mL worked out at 100%, the killing at 40 µg/mL worked out at 100% and the killing at 80 µg/mL turned out to be 100%.
